Test results published in article PMC4496781, “Functional Roles of Aromatic Residues and Helices of Papiliocin in its Antimicrobial and Anti-inflammatory Activities” (Scientific Reports, 2015).
Converted amounts (≈) assume the structure as drawn.

Columns and labels:
[1] = test system: gram-positive bacteria (B. subtilis, E. faecalis, S. aureus); conditions: for Therapeutic Index (MHC/GM), gram-positive: ratio MHC (μM) over GM of MIC (μM); for GM of the MIC values, gram-positive: three gram-positive standard strains, 256 μM used when no activity at 128 μM
Method: (§1) This property is assessed by the therapeutic index which can be defined as a ratio of the […] against human hRBCs to the MIC against bacterial cells.
(§2) MICs of the peptides against six standard bacteria and four multidrug-resistant bacteria were determined by a broth microdilution assay as described previously. […] Cytotoxicities against mammalian cells were measured against human RBCs, mouse macrophage-derived RAW264.7 cells, and fibroblast NIH-3T3 cells. The anti-inflammatory activities of the peptides were examined by inhibiting nitrite production in LPS-stimulated RAW264.7 cells.

[2] = test system: gram-negative bacteria (E. coli, S. typhimurium, P. aeruginosa); conditions: for Therapeutic Index (MHC/GM), gram-negative: ratio MHC (μM) over GM of MIC (μM); for GM of the MIC values, gram-negative: three gram-negative standard strains, 256 μM used when no activity at 128 μM
Method: as §1, §2

[3] = Calcein leakage from zwitterionic LUVs; conditions: EYPC/CH 10:1 LUVs, mimic human erythrocytes
Method: Figure 5 Dose-response curves of calcein leakage from (A) egg yolk phosphatidylcholine (EYPC)/egg yolk phosphatidylglycerol (EYPG) (7:3, w:w) and (B) EYPC/cholesterol (CH) large unilamellar vesicles (LUVs; 10:1, w-w) induced by the peptides. Calcein leakage was measured 2 min after the addition of papiliocin. The lipid concentration used in the leakage experiments was 64 μM.
None of the peptides containing the N-terminal helix permeated zwitterionic vesicles (10:1 [w/w] EYPC/CH) effectively. Zwitterionic vesicles mimic the outer leaflet components of human erythrocytes.
In order to investigate the mode of action, membrane permeabilization ability was monitored using a model membrane and E.coli. Calcein leakage induced by the peptides was measured in egg yolk phosphatidylcholine (EYPC)/egg yolk phosphatidylglycerol (EYPG) (7:3, w/w) and EYPC/cholesterol (CH) large unilamellar vesicles (LUVs; 10:1, w:w) as described previously. The depolarization assay was conducted with intact E. coli bacteria (KCTC 1682) as well as E. coli spheroplasts (ATCC 25922)[51][52]. The ability of peptide to depolarize the membrane is indicated by an increase in the fluorescence of diSC3-5. […] The membrane potential dissipating activity of the peptides can be calculated as follows: […]

[4] = test system: RAW264.7 macrophage cells; assay: Cytotoxicity, MTT; type: cell-based, mouse
Method: (§3) We examined the cytotoxicity against human erythrocytes. […] Next, we examined the cytotoxicity of the peptides against RAW264.7 macrophage cells. We assessed the effects of the peptides on cell growth by measuring mitochondrial reduction of MTT to a colored product in live cells. […] On the other hand, PapC produced high cytotoxicity against RAW264.7 cells, even at low concentrations. […] In case of PapN-2A, Pap-5A, and Pap-2A5A, the cell survival rates at a peptide concentration of 100 μM were approximately 90% or more. Thus, Trp^2 and Phe^5 are important for the cytotoxic activity of papiliocin toward RAW264.7 cells.
as §2

[5] = test system: Eenterococcus faecalis; conditions: broth microdilution, 16 h incubation; three independent experiments in triplicate, SD 14.0%
Method: as §2

[6] = test system: MDRPA 2095(R); conditions: broth microdilution, 16 h; unit not given
Method: (§4) We examined the antimicrobial activities of the peptides against multidrug-resistant bacterial strains, including four gram-negative species (S. typhimurium 8009(R), E. coli 1229(R), P. aeruginosa 2095(R), and A. baumannii 12035(R); Table 3).
as §2

[7] = test system: MDRAB 12035(R); conditions: broth microdilution, 16 h; unit not given
Method: as §4, §2

[8] = test system: MDREC 1229(R); conditions: broth microdilution, 16 h; unit not given
Method: as §4, §2

[9] = test system: MDRST 8009(R); conditions: broth microdilution, 16 h; unit not given
Method: as §4, §2

[10] = test system: human erythrocytes; assay: Hemolytic activity; type: cell-based; conditions: for MHC (minimal peptide concentration that produces hemolysis): human RBCs, 200 μM entered when no detectable hemolysis at 100 μM
Method: as §3, §2

[11] = STD-NMR of peptides bound to LPS; type: binding; conditions: 0.5 mM peptide, 0.1 mg/mL LPS in D2O, pH 5.9, 298 K
Method: To investigate the mode of peptide interaction with LPS, we performed STD-NMR experiments.
(A) Papiliocin, (B) PapN, and (C) PapC. Spectral differences primarily constituted resonances fromn the peptide protons bound to LPS. The STD experiments were carried out using a peptide concentration of 0.5 mM in presence of 0.1 mg/mL LPS in D2O, pH 5.9 at 298 K.

[12] = test system: LPS-stimulated RAW264.7 cells; assay: Inhibition of NO (nitrite) production; type: cell-based, mouse; conditions: 10 μM peptide stated for PapN series
From the text: When released from gram-negative bacteria, LPS causes septic shock by inducing the production of pro-inflammatory cytokines and NO[33]. To examine the structural mechanism of the anti-inflammatory activity of papiliocin, we indirectly measured inhibition of NO production by the peptides in LPS-simulated RAW264.7 macrophages. […] Papiliocin was markedly more efficient than papiliocin-2A, papiliocin-5A, or papiliocin-2A5A, implying that Trp^2 and Phe^5 are important for anti-inflammatory activity.
as §2

[13] = test system: Bacillus subtilis; conditions: broth microdilution, 16 h incubation; three independent experiments in triplicate, SD 14.0%
Method: as §2

[14] = test system: Escherichia coli; conditions: broth microdilution, 16 h incubation; three independent experiments in triplicate, SD 14.0%
Method: as §2

[15] = test system: Pseudomonas aeruginosa; conditions: broth microdilution, 16 h incubation; three independent experiments in triplicate, SD 14.0%
Method: as §2

[16] = test system: Salmonella typhimurium; conditions: broth microdilution, 16 h incubation; three independent experiments in triplicate, SD 14.0%
Method: as §2

[17] = test system: Staphylococcus aureus; conditions: broth microdilution, 16 h incubation; three independent experiments in triplicate, SD 14.0%
Method: as §2

[18] = test system: E. coli (KCTC 1682); assay: Time-killing kinetics; type: cell-based, Escherichia coli; conditions: even at 4× MIC, 37 °C

| Molecule | Therapeutic Index (MHC/GM), gram-positive [1] | GM of the MIC values, gram-positive [1] | Therapeutic Index (MHC/GM), gram-negative [2] | GM of the MIC values, gram-negative [2] | permeabilization of zwitterionic vesicles, in words [3] | MIC, Eenterococcus faecalis [5] | MIC, MDRPA 2095(R) [6] | MIC, MDRAB 12035(R) [7] | MIC, MDREC 1229(R) [8] | MIC, MDRST 8009(R) [9] | MHC (minimal peptide concentration that produces hemolysis) [10] | also measured |
| --- | --- | --- | --- | --- | --- | --- | --- | --- | --- | --- | --- | --- |
| CC[C@H](C)[C@H](NC(=O)CN)C(=O)NCC(=O)N[C@@H](C)C(=O)N[C@H](C(=O)N[C@@H](CC(C)C)C(=O)N[C@@H](CCCCN)C(=O)N[C@H](C(=O)N[C@@H](CC(C)C)C(=O)N[C@H](C(=O)N[C@H](C(=O)NCC(=O)N[C@@H](CC(C)C)C(=O)N1CCC[C@H]1C(=O)N[C@@H](C)C(=O)N[C@@H](CC(C)C)C(=O)N[C@H](C(=O)N[C@@H](CO)C(=O)N[C@@H](Cc1c[nH]c2ccccc12)C(=O)N[C@H](C(=O)N[C@@H](CCCCN)C(=O)N[C@@H](CCCNC(=N)N)C(=O)N[C@@H](CCCCN)C(=O)N[C@@H](CCCNC(=N)N)C(=O)N[C@@H](CCC(N)=O)C(=O)N[C@@H](CCC(N)=O)C(N)=O)[C@@H](C)CC)[C@@H](C)CC)[C@@H](C)O)[C@@H](C)O)C(C)C)C(C)C [Melittin, reference compound] | 0.117 | 3.33 µM | 0.098 | 4.00 µM | membrane-disrupting activities against both negatively charged and zwitterionic vesicles | 2.00 µM (≈ 5.69 µg/mL) | 2.00 µM (≈ 5.69 µg/mL) | 4.00 µM (≈ 11.4 µg/mL) | 8.00 µM (≈ 22.8 µg/mL) | 8.00 µM (≈ 22.8 µg/mL) | 0.391 µM | cytotoxicity at the peptide's MIC ([4]; hRBCs and RAW264.7 cells (Fig. 4A,B)): high cytotoxicity at its MIC |
| AVAVVGQAATVVK-NH2 [PapC, C-terminal analog composed of C-terminal helix residues Ala25–Lys37 of papiliocin] | 0.006 | 256 µM | 0.007 | 213 µM | permeabilized zwitterionic vesicles effectively | >128 µM | >128 µM | >128 µM | >128 µM | >128 µM | 1.56 µM | STD effect in presence of LPS [11]: not detected for any region; survival rate of RAW264.7 cells ([4]; MTT, 10 μM peptide): 44.2%; inhibition of NO production, in words [12]: does not inhibit NO production; MIC, Bacillus subtilis [13]: >128 µM; MIC, Escherichia coli [14]: 128 µM; MIC, Pseudomonas aeruginosa [15]: >128 µM; MIC, Salmonella typhimurium [16]: >128 µM; MIC, Staphylococcus aureus [17]: >128 µM; hemolytic activity ([10]; human erythrocytes, 6.25 μM peptide): 49%; killing of E. coli within an hour [18]: did not detectably kill bacteria within an hour |
